Assay results published in ChEMBL document CHEMBL1153803, “Parallel synthesis of chiral pentaamines and pyrrolidine containing bis-heterocyclic libraries. Multiple scaffolds with multiple building blocks: a double diversity for the identification of new antitubercular compounds” (Bioorg Med Chem Lett, 2009).
Converted amounts (≈) assume the structure as drawn.

Columns and labels:
[1] = test system: Mycobacterium tuberculosis; assay: Antimicrobial activity against Mycobacterium tuberculosis H37Rv ATCC 27294 by microplate Almar blue assay; assay type: functional
Vero = assay: Cytotoxicity against african green monkey Vero cells at after 72 hrs by MTT assay; assay type: cell-based, Chlorocebus sabaeus
[2] = test system: Mycobacterium tuberculosis; assay: Antimicrobial activity against Mycobacterium tuberculosis H37Rv ATCC 27294 at 6.25 ug/mL by broth microdilution assay; assay type: functional
[3] = Selective index, the ratio of IC50 in the african green monkey Vero cells to the MIC to Mycobacterium tuberculosis H37Rv ATCC 27294; assay type: functional
[4] = Mycobacterium tuberculosis, H37Rv ATCC 27294, read-out: MIC
[5] = Chlorocebus sabaeus, Vero, 72 h, read-out: IC50

Row | Structure (SMILES) | MIC [1, 4] [µg/mL] | IC50 (Vero; [5]) [µg/mL] | inhibition at 6.25 µg/mL [2] [%] | Selectivity Index [3] | MIC [1] [µg/mL] | IC50 (Vero; vero) [µg/mL]
1 | NC[C@H](Cc1ccccc1)NC[C@@H]1CCCN1C[C@H](Cc1ccccc1)NC[C@H](Cc1ccccc1)NCCC12CC3CC(CC(C3)C1)C2 | 3.13 (≈ 4.73 µM) | 1.1 (≈ 1.66 µM) | – | – | – | –
2 | NC[C@H](Cc1ccc2ccccc2c1)NC[C@@H]1CCCN1C[C@H](Cc1ccccc1)NC[C@H](Cc1ccccc1)NCCc1ccccc1 | 6.25 (≈ 9.56 µM) | 4.23 (≈ 6.47 µM) | – | – | – | –
3 | CC1CCC(CN2CCN([C@@H](Cc3ccccc3)CN3CCCC3CN3CCNC[C@@H]3Cc3ccccc3)C[C@@H]2Cc2ccccc2)CC1 (stereo partly drawn) | 6.25 (≈ 9.44 µM) | 1.39 (≈ 2.1 µM) | 99 | 0.21 | 3.9 (≈ 5.89 µM) | 0.82 (≈ 1.24 µM)
4 | NC[C@H](Cc1ccccc1)NC[C@@H]1CCCN1C[C@H](Cc1ccccc1)NC[C@H](Cc1ccccc1)NCC12CC3CC(CC(C3)C1)C2 | 6.25 (≈ 9.65 µM) | – | – | – | – | –
5 | NC[C@H](Cc1ccccc1)NC[C@@H]1CCCN1C[C@H](Cc1ccccc1)NC[C@H](Cc1ccccc1)NCC1CCCC1 | 6.25 (≈ 10.7 µM) | – | – | – | – | –
6 | NC[C@H](Cc1ccccc1)NC[C@@H]1CCCN1C[C@H](Cc1ccccc1)NC[C@H](Cc1ccccc1)NCCCC1CCCC1 | 6.25 (≈ 10.2 µM) | – | – | – | – | –
7 | NC[C@H](Cc1ccccc1)NC[C@@H]1CCCN1C[C@H](Cc1ccccc1)NC[C@H](Cc1ccccc1)NCCC1CCCCC1 | 6.25 (≈ 10.2 µM) | 1.05 (≈ 1.72 µM) | – | – | – | –
8 | CCCCCCCN[C@H](CN[C@@H](Cc1ccccc1)CN1CCC[C@H]1CN[C@H](CN)Cc1ccccc1)Cc1ccccc1 | > 6.25 | – | – | – | – | –
9 | NC[C@H](Cc1ccccc1)NC[C@@H]1CCCN1C[C@H](Cc1ccccc1)NC[C@H](Cc1ccccc1)NCCc1ccc(-c2ccccc2)cc1 | > 6.25 | – | – | – | – | –
10 | c1ccc(C[C@H]2CNCCN2C[C@@H]2CCCN2C[C@H](Cc2ccccc2)N2CCN(CC34CC5CC(CC(C5)C3)C4)[C@@H](Cc3ccccc3)C2)cc1 | 3.9 (≈ 5.57 µM) | – | 99 | – | – | –
11 | S=C1NC[C@H](Cc2ccccc2)N1C[C@@H]1CCCN1C[C@H](Cc1ccccc1)N1C[C@H](Cc2ccccc2)N(CC23CC4CC(CC(C4)C2)C3)C1=S | 6.25 (≈ 8.54 µM) | – | 98 | – | – | –
12 | N=C1NC[C@H](Cc2ccccc2)N1C[C@@H]1CCCN1C[C@H](Cc1ccccc1)N1C[C@H](Cc2ccccc2)N(CC23CC4CC(CC(C4)C2)C3)C1=N | 3.9 (≈ 5.59 µM) | – | 91 | – | – | –
13 | N=C1NC[C@H](Cc2ccccc2)N1CC1CCCN1C[C@H](Cc1ccccc1)N1C[C@H](Cc2ccccc2)N(CC2CCCCCC2)C1=N (stereo partly drawn) | 3.9 (≈ 5.91 µM) | 39.5 (≈ 59.8 µM) | 92 | 10.1 | – | –
14 | N=C1NC[C@H](Cc2ccccc2)N1CC1CCCN1C[C@H](Cc1ccccc1)N1C[C@H](Cc2ccccc2)N(CCc2ccc(Cl)c(Cl)c2)C1=N (stereo partly drawn) | 3.9 (≈ 5.4 µM) | 24.5 (≈ 33.9 µM) | 95 | 6.3 | – | –
15 | CCC(C)CN1C(=N)N([C@@H](Cc2ccccc2)CN2CCCC2CN2C(=N)NC[C@@H]2Cc2ccccc2)C[C@@H]1Cc1ccccc1 (stereo partly drawn) | 7.8 (≈ 12.6 µM) | 36.8 (≈ 59.3 µM) | 90 | 4.7 | – | –
16 | N=C1NC[C@H](Cc2ccccc2)N1CC1CCCN1C[C@H](Cc1ccccc1)N1C[C@H](Cc2ccccc2)N(CC2CCCC2)C1=N (stereo partly drawn) | 7.8 (≈ 12.3 µM) | 33.5 (≈ 53.1 µM) | 93 | 4.3 | – | –
17 | CC(C)CCCN1C(=N)N([C@@H](Cc2ccccc2)CN2CCCC2CN2C(=N)NC[C@@H]2Cc2ccccc2)C[C@@H]1Cc1ccccc1 (stereo partly drawn) | 7.8 (≈ 12.3 µM) | 31 (≈ 48.9 µM) | 93 | 3.97 | – | –

Row | Structure (SMILES) | MIC [1, 4] [µg/mL] | IC50 (Vero; [5]) [µg/mL] | inhibition at 6.25 µg/mL [2] [%] | Selectivity Index [3] | MIC [1] [µg/mL] | IC50 (Vero; vero) [µg/mL]
18 | N=C1NC[C@H](Cc2ccccc2)N1CC1CCCN1C[C@H](Cc1ccccc1)N1C[C@H](Cc2ccccc2)N(CCC23CC4CC(CC(C4)C2)C3)C1=N (stereo partly drawn) | 3.9 (≈ 5.48 µM) | 14.5 (≈ 20.3 µM) | 91 | 3.7 | – | –
19 | N=C1NC[C@H](Cc2ccccc2)N1CC1CCCN1C[C@H](Cc1ccccc1)N1C[C@H](Cc2ccccc2)N(CCCCC2CCCCC2)C1=N (stereo partly drawn) | 3.9 (≈ 5.67 µM) | 14.3 (≈ 20.8 µM) | 91 | 3.7 | – | –
20 | N=C1NC[C@H](Cc2ccccc2)N1CC1CCCN1C[C@H](Cc1ccccc1)N1C[C@H](Cc2ccccc2)N(CCC2CCCCC2)C1=N (stereo partly drawn) | 3.9 (≈ 5.91 µM) | 13.9 (≈ 21.1 µM) | 94 | 3.8 | – | –
21 | N=C1NC[C@H](Cc2ccccc2)N1CC1CCCN1C[C@H](Cc1ccccc1)N1C[C@H](Cc2ccccc2)N(CCC2CC3CCC2C3)C1=N (stereo partly drawn) | 7.8 (≈ 11.6 µM) | 15.5 (≈ 23 µM) | 94 | 1.98 | – | –
22 | CC(C)(C)C1CCC(CN2C(=N)N([C@@H](Cc3ccccc3)CN3CCCC3CN3C(=N)NC[C@@H]3Cc3ccccc3)C[C@@H]2Cc2ccccc2)CC1 (stereo partly drawn) | 7.8 (≈ 11.1 µM) | 15.2 (≈ 21.7 µM) | 94 | 1.95 | – | –
23 | S=C1NC[C@H](Cc2ccccc2)N1CC1CCCN1C[C@H](Cc1ccccc1)N1C[C@H](Cc2ccccc2)N(CC2CCCCC2)C1=S (stereo partly drawn) | 3.9 (≈ 5.73 µM) | 8.47 (≈ 12.5 µM) | 97 | 2.2 | – | –
24 | CC(C)[C@H]1CNC(=S)N1CC1CCCN1C[C@H](Cc1ccccc1)N1C[C@H](Cc2ccccc2)N(CCc2ccccc2)C1=S (stereo partly drawn) | – | – | 90 | – | – | –
25 | c1ccc(CCN2CCN([C@@H](CC3CCCCC3)CN3CCCC3CN3CCNC[C@@H]3Cc3ccccc3)C[C@@H]2Cc2ccccc2)cc1 (stereo partly drawn) | 2 (≈ 3.02 µM) | 0.99 (≈ 1.5 µM) | 100 | 0.5 | – | –
26 | c1ccc(C[C@H]2CNCCN2CC2CCCN2C[C@H](Cc2ccccc2)N2CCN(CCCCC3CCCCC3)[C@@H](Cc3ccccc3)C2)cc1 (stereo partly drawn) | 2 (≈ 2.9 µM) | 1 (≈ 1.45 µM) | 99 | 0.5 | – | –
27 | c1ccc(C[C@H]2CNCCN2CC2CCCN2C[C@H](Cc2ccccc2)N2CCN(CC34CC5CC(CC(C5)C3)C4)[C@@H](Cc3ccccc3)C2)cc1 (stereo partly drawn) | 2 (≈ 2.86 µM) | 0.97 (≈ 1.39 µM) | 97 | 0.49 | – | –
28 | c1ccc(C[C@H]2CNCCN2CC2CCCN2C[C@H](Cc2ccccc2)N2CCN(CCCC3CCCCC3)[C@@H](Cc3ccccc3)C2)cc1 (stereo partly drawn) | 2 (≈ 2.96 µM) | 0.94 (≈ 1.39 µM) | 99 | 0.47 | – | –
29 | CC(C)CCCN1CCN([C@@H](Cc2ccccc2)CN2CCCC2CN2CCNC[C@@H]2Cc2ccccc2)C[C@@H]1Cc1ccccc1 (stereo partly drawn) | 2 (≈ 3.14 µM) | 0.89 (≈ 1.4 µM) | 99 | 0.45 | – | –
30 | NC[C@H](Cc1ccccc1)NC[C@@H]1CCCN1C[C@H](Cc1ccccc1)NC[C@H](Cc1ccccc1)NCCCC1CCCCC1 | 3.13 (≈ 5.02 µM) | – | 99 | – | – | –
31 | CCC(C)CCN1C(=N)N([C@@H](Cc2ccccc2)CN2CCCC2CN2C(=N)NC[C@@H]2Cc2ccccc2)C[C@@H]1Cc1ccccc1 (stereo partly drawn) | 7.8 (≈ 12.3 µM) | 32.3 (≈ 50.9 µM) | 91 | 4.1 | – | –
32 | CC(C)(C)C1CCC(CN2CCN([C@@H](Cc3ccccc3)CN3CCCC3CN3CCNC[C@@H]3Cc3ccccc3)C[C@@H]2Cc2ccccc2)CC1 (stereo partly drawn) | 2 (≈ 2.84 µM) | 1.15 (≈ 1.63 µM) | 97 | 0.58 | – | –
33 | OCC(CN1CCN([C@@H](Cc2ccccc2)CN2CCCC2CN2CCNC[C@@H]2Cc2ccccc2)C[C@@H]1Cc1ccccc1)c1ccccc1 (stereo partly drawn) | 20 (≈ 29.2 µM) | 1.08 (≈ 1.57 µM) | 99 | – | – | –
34 | NC[C@H](Cc1ccccc1)NC[C@@H]1CCCN1C[C@H](Cc1ccccc1)NC[C@H](Cc1ccccc1)NCCC1CC2CCC1C2 (stereo partly drawn) | 3.13 (≈ 5.03 µM) | 1.03 (≈ 1.66 µM) | – | – | – | –
